test: Binding affinity to C-terminal his-Avi-tagged human JAK2 JH-2 domain (536 to 812 residues) W659A/W777A/F794H mutant expressed in baculovirus expression system incubated for 1 hr in presence of JAK2 JH2 tracer and ATP by Lanthascreen assay

| Compound | IC50 |
| --- | --- |
| COC(=O)N[C@@H]1CC[C@@H](n2c(=O)n(C)c3cnc(Nc4cccc(-c5ccc(OC)nc5)n4)cc32)C1 | ≤ 0.01 µM |
| COC(=O)N[C@@H]1CC[C@@H](n2c(=O)n(C)c3cnc(Nc4cccc(-c5ccc6c(c5)OCCO6)n4)cc32)C1 | ≤ 0.01 µM |
| COC(=O)N[C@@H]1CC[C@@H](n2c(=O)n(C)c3cnc(Nc4cc(C)nc(N5CCC(F)(F)C5)n4)cc32)C1 | ≤ 0.01 µM |
| COC(=O)N[C@@H]1CC[C@@H](n2c(=O)n(C)c3cnc(Nc4ccc(F)c(-c5ccc(C6CC6)cc5)n4)cc32)C1 | ≤ 0.01 µM |
| COC(=O)N[C@@H]1CC[C@@H](n2c(=O)n(C)c3cnc(Nc4cccc(-c5ccc6[nH]nc(C)c6c5)n4)cc32)C1 | ≤ 0.01 µM |
| COC(=O)N[C@@H]1CC[C@@H](n2c(=O)n(C)c3cnc(Nc4ccnc(N5CCCCC5)n4)cc32)C1 | ≤ 0.01 µM |
